Experimental findings from patent US20090012051A1, “EXTERNAL PREPARATION” (KYOWA HAKKO KOGYO CO., LTD., priority 2005, published 2009) are described below.

This series in a line: Solubility of Compound (I) in solvent components. Type of series: physicochemical.

In brackets after ≈: the same amount, converted by molar mass.

What is called solubility is the concentration that dissolves in the medium under given conditions. `COc1ccc(C(=O)Cc2c(Cl)cncc2Cl)c2c1OC1(CCCC1)O2` [Compound (I), 7-[2-(3,5-dichloro-4-pyridyl)-1-oxoethyl]-4-methoxy-spiro[1,3-benzodioxol-2,1′-cyclopentane]]: the solubility was approximately 10 mg/mL (≈ 25.4 mM) (oil or lipid, in isopropyl myristate); approximately 100 mg/mL (≈ 254 mM) (organic solvent or mixture, in benzyl alcohol); approximately 33 mg/mL (≈ 83.7 mM) (organic solvent or mixture, in propylene carbonate); approximately 3 mg/mL (≈ 7.61 mM) (organic solvent or mixture, in propylene glycol).
